Key:
[1] = tested on: pathogenic bacteria causing stem rot in sweet potatoes; experiment: In vitro bactericidal activity, stem rot in sweet potatoes; format: cell-based, dikia; conditions: read-out: inhibitory rate; for inhibition at 1 ppm: dosage 1 ppm; for inhibition at 5 ppm: dosage 5 ppm
Protocol: (§1) Under aseptic conditions, equal amounts of NB culture medium were added to test tubes, and fixed amounts of the sample solutions were pipetted into the above test tubes in an ascending order of concentrations, respectively. The mixtures were well mixed and added with equal amounts of a bacterial suspension in log phase.
(§2) Each step of the procedure was repeated 4 times. After mixing, the mixture samples were incubated in the dark in a shaking incubator at 25° C. The OD values were measured when the bacteria were in log phase.

[2] = tested on: pathogenic bacteria causing fruit blotch in watermelons; experiment: In vitro bactericidal activity, fruit blotch in watermelons; format: cell-based, acidovorax; conditions: read-out: inhibitory rate; for inhibition at 1 ppm: dosage 1 ppm; for inhibition at 5 ppm: dosage 5 ppm
Protocol: as §1, §2

[3] = tested on: pathogenic bacteria causing bacterial wilt in cassava; experiment: organism not typed; format: cell-based; conditions: read-out: inhibitory rate
[4] = tested on: indoor potted cucumber seedlings; experiment: Effect of improving growth and development of crops; format: in vivo; set-up: Rate of growth rate increase (%): concentration or dose not given beside the values; conditions: versus blank control; for Rate of chlorophyll content increase (%) / Rate of leaf area increase (%): 14 days after application; for Rate of growth rate increase (%): plant height 14 days after application; for Rate of leaf area increase (%): second leaf
Protocol: (§3) Taking indoor potted cucumber seedlings as an example, the influence of the compound disclosed herein on growth rate of plant height, chlorophyll content, leaf area, etc. of crops was mainly evaluated.
The plant heights of plants before application and 14 days after the application were measured.
The growth rates were calculated according to formula (1)
The rates of the growth rate increase (%) were calculated according to formula (2)
The longitudinal and transverse diameters (i.e., leaf length and leaf width, respectively, wherein the leaf length is the distance from the base to the tip of a leaf, and leaf width is the measured value of the upper shoulder width of the leaf) of the second leaf of plants before application and 14 days after the application were measured.
The leaf areas were calculated according to formula (3)
The leaf area increases were calculated according to formula (4)
The rates of the leaf area increases were calculated according to formula (5)
The chlorophyll contents of leaves were measured by using a chlorophyll measuring instrument (model: SPAD-520 Plus).
The chlorophyll content increases were calculated according to formula (6)
The rates of the chlorophyll content increases were calculated according to formula (7)

cucumber seedlings = experiment: Safety for plant growth after application; format: in vivo; conditions: dosage 200 ppm
Excerpt: as §3
The results of safety and health-care effect of the compounds of the present disclosure on cucumber seedlings are shown in the following table 1: […]

[5] = tested on: pathogenic bacteria causing bacterial blight in rice; experiment: whole plant or invertebrate; format: cell-based, xanthomonas; conditions: read-out: inhibitory rate
[6] = tested on: pathogenic bacteria causing black shank in potatoes; experiment: In vitro bactericidal activity, black shank in potatoes; format: cell-based; conditions: read-out: inhibitory rate; for inhibition at 1 ppm: dosage 1 ppm; for inhibition at 5 ppm: dosage 5 ppm
Protocol: as §1, §2

[7] = tested on: soft rot in Chinese cabbages; experiment: whole plant or invertebrate; conditions: 48 h, read-out: efficacy against soft rot in Chinese cabbages
[8] = tested on: pathogenic bacteria causing black rot in Chinese cabbages; experiment: In vitro bactericidal activity, black rot in Chinese cabbages; format: cell-based, xanthomonas; conditions: Xanthomonas, read-out: inhibitory rate; for inhibition at 1 ppm: dosage 1 ppm; for inhibition at 5 ppm: dosage 5 ppm
Protocol: as §1, §2

[9] = tested on: pathogenic bacteria causing bacterial angular leaf spot in cucumbers; experiment: In vitro bactericidal activity, bacterial angular leaf spot in cucumbers; format: cell-based, pseudomonas; conditions: read-out: inhibitory rate; for inhibition at 1 ppm: dosage 1 ppm; for inhibition at 5 ppm: dosage 5 ppm
Protocol: as §1, §2

[10] = tested on: pathogenic bacteria causing bacterial wilt in tobacco; experiment: whole plant or invertebrate; format: cell-based, ralstonia; conditions: read-out: inhibitory rate
[11] = tested on: fruit blotch in watermelons; experiment: whole plant or invertebrate; conditions: read-out: efficacy against fruit blotch in watermelons
[12] = tested on: bacterial wilt in tobacco; experiment: whole plant or invertebrate; conditions: Nicotiana tabacum, read-out: efficacy against bacterial wilt in tobacco
black shank in potatoes = experiment: Living crops in vivo protective activity, potatoes (root irrigation); conditions: Solanum tuberosum, read-out: efficacy against black shank in potatoes; for pest or weed control at 5 ppm: dosage 5 ppm; for pest or weed control at 10 ppm: dosage 10 ppm
Protocol: Root irrigation was carried out on the potatoes for tests according to the designed concentration of the agents. The dosage for each plant was 200 mL and was kept consistent (also for the control). The black shank bacteria were inoculated on the second day after the application. The results were investigated according to the disease condition.

bacterial blight in rice = experiment: whole plant or invertebrate; conditions: Oryza sativa, read-out: efficacy against bacterial blight in rice
[13] = tested on: pathogenic bacteria causing fire blight in pears; experiment: In vitro bactericidal activity, fire blight in pears; format: cell-based, erwinia; conditions: Erwinia, read-out: inhibitory rate; for inhibition at 1 ppm: dosage 1 ppm; for inhibition at 5 ppm: dosage 5 ppm
Protocol: as §1, §2

[14] = tested on: stem rot in sweet potatoes; experiment: whole plant or invertebrate; conditions: read-out: efficacy against stem rot in sweet potatoes

Row | SMILES | inhibition at 1 ppm [1] [%] | inhibition at 5 ppm [1] [%] | inhibition at 1 ppm [2] [%] | inhibition at 5 ppm [2] [%] | inhibition at 1 ppm [3] [%] | inhibition at 5 ppm [3] [%] | safety for plant growth (discoloration, necrosis, wilt, malformation) (cucumber seedlings) | inhibition at 1 ppm [5] [%] | inhibition at 5 ppm [5] [%] | inhibition at 1 ppm [6] [%] | inhibition at 5 ppm [6] [%] | pest or weed control at 5 ppm [7] [%] | pest or weed control at 10 ppm [7] [%] | inhibition at 1 ppm [8] [%] | inhibition at 5 ppm [8] [%] | inhibition at 1 ppm [9] [%] | inhibition at 5 ppm [9] [%] | inhibition at 1 ppm [10] [%] | inhibition at 5 ppm [10] [%] | pest or weed control at 5 ppm [11] [%] | other results
1 | COCCOC(=O)c1cn(C2CC2)c2ccc(F)cc2c1=O [Compound 10, 2-methoxyethyl 1-cyclopropyl-6-fluoro-4-oxo-1,4-dihydroquinoline-3-carboxylate] | ≥ 90 | ≥ 90 | ≥ 90 | ≥ 90 | ≥ 90 | ≥ 90 | safe for plant growth | ≥ 80 | ≥ 90 | ≥ 80 | ≥ 90 | ≥ 80 | ≥ 90 | ≥ 90 | ≥ 90 | ≥ 90 | ≥ 90 | ≥ 80 | ≥ 90 | ≥ 90 | Rate of chlorophyll content increase (%) [4]: 13%; Rate of growth rate increase (%) [4]: 9%; Rate of leaf area increase (%) [4]: 10%; pest or weed control at 10 ppm [11]: ≥ 90%; pest or weed control at 5 ppm [12]: ≥ 90%; pest or weed control at 10 ppm [12]: ≥ 90%; pest or weed control at 5 ppm (black shank in potatoes): ≥ 80%; pest or weed control at 10 ppm (black shank in potatoes): ≥ 90%; pest or weed control at 5 ppm (bacterial blight in rice): ≥ 80%; pest or weed control at 10 ppm (bacterial blight in rice): ≥ 90%; inhibition at 1 ppm [13]: ≥ 90%; inhibition at 5 ppm [13]: ≥ 90%; pest or weed control at 5 ppm [14]: ≥ 90%; pest or weed control at 10 ppm [14]: ≥ 90%
2 | COCOC(=O)c1cn(C2CC2)c2cc(Cl)c(F)cc2c1=O [Compound 143] | ≥ 80 | ≥ 90 | ≥ 80 | ≥ 90 | ≥ 80 | ≥ 90 | safe for plant growth | ≥ 80 | ≥ 90 | ≥ 80 | ≥ 90 | ≥ 80 | ≥ 90 | ≥ 80 | ≥ 90 | ≥ 80 | ≥ 90 | ≥ 80 | ≥ 90 | ≥ 90 | Rate of chlorophyll content increase (%) [4]: 11%; Rate of growth rate increase (%) [4]: 8%; Rate of leaf area increase (%) [4]: 15%; pest or weed control at 10 ppm [11]: ≥ 90%; pest or weed control at 5 ppm [12]: ≥ 90%; pest or weed control at 10 ppm [12]: ≥ 90%; pest or weed control at 5 ppm (black shank in potatoes): ≥ 80%; pest or weed control at 10 ppm (black shank in potatoes): ≥ 90%; pest or weed control at 5 ppm (bacterial blight in rice): ≥ 80%; pest or weed control at 10 ppm (bacterial blight in rice): ≥ 90%; inhibition at 1 ppm [13]: ≥ 80%; inhibition at 5 ppm [13]: ≥ 90%; pest or weed control at 5 ppm [14]: ≥ 90%; pest or weed control at 10 ppm [14]: ≥ 90%
3 | CCOCOC(=O)c1cn(C2CC2)c2cc(Cl)c(F)cc2c1=O [Compound 144] | ≥ 80 | ≥ 90 | ≥ 80 | ≥ 90 | ≥ 80 | ≥ 90 | safe for plant growth | ≥ 80 | ≥ 90 | ≥ 80 | ≥ 90 | ≥ 80 | ≥ 90 | ≥ 80 | ≥ 90 | ≥ 80 | ≥ 90 | ≥ 80 | ≥ 90 | ≥ 90 | Rate of chlorophyll content increase (%) [4]: 18%; Rate of growth rate increase (%) [4]: 10%; Rate of leaf area increase (%) [4]: 13%; pest or weed control at 10 ppm [11]: ≥ 90%; pest or weed control at 5 ppm [12]: ≥ 90%; pest or weed control at 10 ppm [12]: ≥ 90%; pest or weed control at 5 ppm (black shank in potatoes): ≥ 80%; pest or weed control at 10 ppm (black shank in potatoes): ≥ 90%; pest or weed control at 5 ppm (bacterial blight in rice): ≥ 80%; pest or weed control at 10 ppm (bacterial blight in rice): ≥ 90%; inhibition at 1 ppm [13]: ≥ 80%; inhibition at 5 ppm [13]: ≥ 90%; pest or weed control at 5 ppm [14]: ≥ 90%; pest or weed control at 10 ppm [14]: ≥ 90%
4 | COCCOC(=O)c1cn(C2CC2)c2cc(SC)c(F)cc2c1=O [Compound 381, 2-methoxyethyl 1-cyclopropyl-6-fluoro-7-methylthio-4-oxo-1,4-dihydroquinoline-3-carboxylate] | ≥ 90 | ≥ 90 | ≥ 90 | ≥ 90 | ≥ 90 | ≥ 90 | safe for plant growth | ≥ 90 | ≥ 90 | ≥ 90 | ≥ 90 | ≥ 90 | ≥ 90 | ≥ 90 | ≥ 90 | ≥ 90 | ≥ 90 | ≥ 90 | ≥ 90 | ≥ 90 | pest or weed control at 10 ppm [11]: ≥ 90%; pest or weed control at 5 ppm [12]: ≥ 90%; pest or weed control at 10 ppm [12]: ≥ 90%; pest or weed control at 5 ppm (black shank in potatoes): ≥ 90%; pest or weed control at 10 ppm (black shank in potatoes): ≥ 90%; pest or weed control at 5 ppm (bacterial blight in rice): ≥ 90%; pest or weed control at 10 ppm (bacterial blight in rice): ≥ 90%; inhibition at 1 ppm [13]: ≥ 90%; inhibition at 5 ppm [13]: ≥ 90%; pest or weed control at 5 ppm [14]: ≥ 90%; pest or weed control at 10 ppm [14]: ≥ 90%
5 | CCOCCOC(=O)c1cn(C2CC2)c2cc(SCC)c(F)cc2c1=O [Compound 397] | ≥ 90 | ≥ 90 | ≥ 90 | ≥ 90 | ≥ 90 | ≥ 90 | safe for plant growth | ≥ 90 | ≥ 90 | ≥ 90 | ≥ 90 | ≥ 80 | ≥ 90 | ≥ 80 | ≥ 90 | ≥ 90 | ≥ 90 | ≥ 90 | ≥ 90 | ≥ 90 | pest or weed control at 10 ppm [11]: ≥ 90%; pest or weed control at 5 ppm [12]: ≥ 90%; pest or weed control at 10 ppm [12]: ≥ 90%; pest or weed control at 5 ppm (black shank in potatoes): ≥ 90%; pest or weed control at 10 ppm (black shank in potatoes): ≥ 90%; pest or weed control at 5 ppm (bacterial blight in rice): ≥ 90%; pest or weed control at 10 ppm (bacterial blight in rice): ≥ 90%; inhibition at 1 ppm [13]: ≥ 80%; inhibition at 5 ppm [13]: ≥ 90%; pest or weed control at 5 ppm [14]: ≥ 90%; pest or weed control at 10 ppm [14]: ≥ 90%

Reference: US20250313533A1, “QUINOLINE CARBOXYLIC ACID ESTER COMPOUND AND PREPARATION METHOD AND USE THEREOF” (priority 2019, published 2025)
